# System: short-term antigen-specific T cell lines generated from PBMCs
# Assay: Interferon-γ ELISpot assay on short-term antigen-specific T cell lines; for ELISpot: Immungenicity of the peptide shown by IFN-gamma ELISPOT analysis: key: +: ELISPOT: Immungenicity of the peptide shown by IFN-gamma ELISPOT analysis; +*: *highlights data from published resources; *highlights data from published resources
# Type: cell-based, human
# Conditions: HLA restriction A01
row,Substance,ELISpot: Immungenicity of the peptide shown by IFN-gamma ELISPOT analysis
1,8 (SKISEYRHYCY; Human papillomavirus 16) [compound 8],+
2,9 (SEYRHYCYSLY; Human papillomavirus 16) [compound 9],+
3,10 (ETTDLYCY; Human papillomavirus 16) [compound 10],+

# Same assay, conditions: HLA restriction A02
row,Substance,ELISpot: Immungenicity of the peptide shown by IFN-gamma ELISPOT analysis
1,47 (KLPQLCTELQT; Human papillomavirus 16) [compound 47],+
2,48 (ELQTTIHDI; Human papillomavirus 16) [compound 48],+
3,51 (TLHEYMLDLQP; Human papillomavirus 16) [compound 51],+

# Same assay, conditions: HLA restriction A03
row,Substance,ELISpot: Immungenicity of the peptide shown by IFN-gamma ELISPOT analysis
1,53 (CVYCKQQLLR; Human papillomavirus 16) [compound 53],+
2,54 (TTLEQQYNK; Human papillomavirus 16) [compound 54],+
3,67 (MFQDPQERPRK; Human papillomavirus 16) [compound 67],+
4,69 (AVCDKCLK; Human papillomavirus 16) [compound 69],+
5,70 (KCLKFYSKI; Human papillomavirus 16) [compound 70],+
6,71 (KFYSKISEY; Human papillomavirus 16) [compound 71],+
7,72 (KFYSKISEYR; Human papillomavirus 16) [compound 72],+
8,76 (LIRCINCQK; Human papillomavirus 16) [compound 76],+
9,77 (RCINCQKPLCP; Human papillomavirus 16) [compound 77],+
10,78 (KQRFHNIRGR; Human papillomavirus 16) [compound 78],+

# Same assay, conditions: HLA restriction A11
row,Substance,ELISpot: Immungenicity of the peptide shown by IFN-gamma ELISPOT analysis
1,68 (YAVCDKCLKFY; Human papillomavirus 16) [compound 68],+
2,79 (LGIVCPICSQK; Human papillomavirus 16) [compound 79],+

# Same assay, conditions: HLA restriction A24
row,Substance,ELISpot: Immungenicity of the peptide shown by IFN-gamma ELISPOT analysis
1,71 (KFYSKISEY; Human papillomavirus 16) [compound 71],+
2,93 (YSLYGTTL; Human papillomavirus 16) [compound 93],+
3,94 (HLDKKQRFHNI; Human papillomavirus 16) [compound 94],+
4,95 (DKKQRFHN; Human papillomavirus 16) [compound 95],+
5,96 (AHYNIVTF; Human papillomavirus 16) [compound 96],+

# Same assay, conditions: HLA restriction B07
row,Substance,ELISpot: Immungenicity of the peptide shown by IFN-gamma ELISPOT analysis
1,104 (RPRKLPQLCT; Human papillomavirus 16) [compound 104],+
2,105 (KPLCDLLI; Human papillomavirus 16) [compound 105],+
3,106 (RCMSCCRSSR; Human papillomavirus 16) [compound 106],+

# Same assay, conditions: HLA restriction B15
row,Substance,ELISpot: Immungenicity of the peptide shown by IFN-gamma ELISPOT analysis
1,9 (SEYRHYCYSLY; Human papillomavirus 16) [compound 9],+
2,12 (TLHEYMLDL; Human papillomavirus 16) [compound 12],+
3,81 (RAHYNIVTF; Human papillomavirus 16) [compound 81],+
4,111 (QQLLRREVY; Human papillomavirus 16) [compound 111],+
5,118 (LLRREVYDFAF; Human papillomavirus 16) [compound 118],+

# Same assay, conditions: comparison among the peptides in Table 1
row,Substance,"rates of immunoactivation in PBMC samples, CD8 T cell responses and/or numbers of HPV16 positive cell lines presenting the peptide as HLA-complexes"
1,1 (ISEYRHYCY; Human papillomavirus 16) [compound 1],"highest rates of immunoactivation in PBMC samples, to induce the strongest CD8 T cell responses, and/or shown to be presented as HLA-complexes by the highest numbers of HPV16 positive cell lines"
2,2 (HGDTPTLHEY; Human papillomavirus 16) [compound 2],"highest rates of immunoactivation in PBMC samples, to induce the strongest CD8 T cell responses, and/or shown to be presented as HLA-complexes by the highest numbers of HPV16 positive cell lines"
3,11 (TIHDIILECV; Human papillomavirus 16) [compound 11],"highest rates of immunoactivation in PBMC samples, to induce the strongest CD8 T cell responses, and/or shown to be presented as HLA-complexes by the highest numbers of HPV16 positive cell lines"
4,13 (YMLDLQPET; Human papillomavirus 16) [compound 13],"highest rates of immunoactivation in PBMC samples, to induce the strongest CD8 T cell responses, and/or shown to be presented as HLA-complexes by the highest numbers of HPV16 positive cell lines"
5,18 (RTLEDLLMGT; Human papillomavirus 16) [compound 18],"highest rates of immunoactivation in PBMC samples, to induce the strongest CD8 T cell responses, and/or shown to be presented as HLA-complexes by the highest numbers of HPV16 positive cell lines"
6,53 (CVYCKQQLLR; Human papillomavirus 16) [compound 53],"highest rates of immunoactivation in PBMC samples, to induce the strongest CD8 T cell responses, and/or shown to be presented as HLA-complexes by the highest numbers of HPV16 positive cell lines"
7,54 (TTLEQQYNK; Human papillomavirus 16) [compound 54],"highest rates of immunoactivation in PBMC samples, to induce the strongest CD8 T cell responses, and/or shown to be presented as HLA-complexes by the highest numbers of HPV16 positive cell lines"
8,80 (VYCKQQLL; Human papillomavirus 16) [compound 80],"highest rates of immunoactivation in PBMC samples, to induce the strongest CD8 T cell responses, and/or shown to be presented as HLA-complexes by the highest numbers of HPV16 positive cell lines"
9,81 (RAHYNIVTF; Human papillomavirus 16) [compound 81],"highest rates of immunoactivation in PBMC samples, to induce the strongest CD8 T cell responses, and/or shown to be presented as HLA-complexes by the highest numbers of HPV16 positive cell lines"
10,82 (EYRHYCYSL; Human papillomavirus 16) [compound 82],"highest rates of immunoactivation in PBMC samples, to induce the strongest CD8 T cell responses, and/or shown to be presented as HLA-complexes by the highest numbers of HPV16 positive cell lines"
11,98 (TPTLHEYML; Human papillomavirus 16) [compound 98],"highest rates of immunoactivation in PBMC samples, to induce the strongest CD8 T cell responses, and/or shown to be presented as HLA-complexes by the highest numbers of HPV16 positive cell lines"

# Reference: patent US20260240976A1, “T[…] VACCINES BASED ON VALIDATED TARGET EPITOPES” (Deutsches Krebsforschungszentrum Stiftung des öffentlichen …, priority 2023, published 2026)
